This is an account of results in the supplement of paper PMC11919725.

The test system of experiment [1] is Jurkat. Kind of experiment: confluency relative to DMSO, 18 h (ratio); higher = more viable. A digest of the protocol: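 Compound was applied at 1 nM–10 µM (log10 steps) for 18 h at 37 °C, 5% CO2 to Jurkat cells or to primary CD4+/CD8+ T cells that were naive or had been activated 48 h with CD3/CD28 Dynabeads. Suspension (100 µl) was then plated in 96-well plates with IncuCyte Cytotox Dye and alamarBlue and imaged hourly over 3 h (×10, five images per well). Confluency was calculated from the IncuCyte phase-contrast images using the Basic Analyzer and normalised to the mean of the control wells.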

Experiment [2] deals with Jurkat. As to the kind of experiment: metabolic activity relative to DMSO, 18 h (ratio); higher = more viable. A digest of the protocol:
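Jurkat cells and primary CD4+/CD8+ T cells, naive or activated for 48 h on CD3/CD28 Dynabeads, were incubated for 18 h with compound at 1 nM–10 µM. Fluorescence was read 3.5 h after alamarBlue addition (10% v/v final) at excitation 544 nm and emission 584 nm. Metabolic activity is normalised to the mean of vehicle controls.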

For experiment [3], the system named is Jurkat. Kind of experiment: cytotoxicity relative to DMSO, 18 h (ratio); higher = less cell death (drugs called cytotoxic fall below 1). In a few lines: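 Fluorescence was imaged at ×10, five images per well, every hour for 3 h, in 96-well plates holding 100 µl of treated cell suspension and IncuCyte Cytotox Dye at 250 nM final. Before plating, Jurkat cells or primary CD4+/CD8+ T cells (naive, or activated 48 h with CD3/CD28 Dynabeads) had been treated for 18 h with compound across 1 nM–10 µM in log10 steps at 37 °C, 5% CO2. Cytotoxicity values were based on these IncuCyte signals after confluency correction and normalisation to the mean of control wells.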

Turning to `Cn1cc(-c2ccc(S(=O)(=O)n3ccc(C=CC(=O)Nc4ccccc4N)c3)cc2)cn1` [Domatinostat], the confluency in the experiment with Jurkat [1] (1 nM) came out at 0.879; with Jurkat [1] (10 nM), 0.91; with Jurkat [1] (100 nM), 0.901; in the experiment on Jurkat [1] (1000 nM), 1.03; in the experiment with Jurkat [1] (10000 nM) it was 0.63. Besides, the metabolic activity in the experiment with Jurkat [2] (1 nM) is 1.1; in the experiment on Jurkat [2] (10 nM) it was 1.12; in the experiment with Jurkat [2] (100 nM), 1.03; in the experiment on Jurkat [2] (1000 nM), 0.922; in the experiment with Jurkat [2] (10000 nM), 0.704. Besides, the cytotoxicity in the experiment on Jurkat [3] (1 nM) came out at 0.906; in the experiment with Jurkat [3] (10 nM) it was 0.925; with Jurkat [3] (100 nM) it was 0.886; in the experiment with Jurkat [3] (1000 nM) it was 1.06; with Jurkat [3] (10000 nM) it was 0.636.

For `COc1cccc2c1C(=O)c1c(O)c3c(c(O)c1C2=O)CC(O)(C(=O)CO)CC3OC1CC(N)C(O)C(C)O1` (stereo not given) [Doxorubicin], the confluency in the experiment on Jurkat [1] (1 nM) turned out to be 1.04; in the experiment on Jurkat [1] (10 nM) it was 0.98; with Jurkat [1] (100 nM) it was 0.995; with Jurkat [1] (1000 nM) it was 0.993; in the experiment on Jurkat [1] (10000 nM), 1.07. For the same compound, the metabolic activity in the experiment with Jurkat [2] (1 nM) turned out to be 1.09; in the experiment with Jurkat [2] (10 nM) it was 0.901; in the experiment on Jurkat [2] (100 nM), 0.89; in the experiment with Jurkat [2] (1000 nM), 0.823; with Jurkat [2] (10000 nM) it was 0.342. For the same compound, the cytotoxicity turned out to be 1.05 in the experiment on Jurkat [3] (1 nM); 0.983 in the experiment on Jurkat [3] (10 nM); 0.967 in the experiment on Jurkat [3] (100 nM); 0.871 with Jurkat [3] (1000 nM); 0.618 with Jurkat [3] (10000 nM).

For the compound `Nc1ccccc1NC(=O)c1ccc(CNC(=O)OCc2cccnc2)cc1` [Entinostat], the confluency in the experiment on Jurkat [1] (1 nM) stood at 1.04; in the experiment on Jurkat [1] (10 nM), 0.967; in the experiment on Jurkat [1] (100 nM), 0.939; in the experiment on Jurkat [1] (1000 nM), 0.906; in the experiment on Jurkat [1] (10000 nM), 0.947. The metabolic activity in the experiment with Jurkat [2] (1 nM) was found to be 0.904; in the experiment with Jurkat [2] (10 nM), 0.811; in the experiment on Jurkat [2] (100 nM), 0.957; with Jurkat [2] (1000 nM), 0.923; in the experiment with Jurkat [2] (10000 nM) it was 0.727. The cytotoxicity was found to be 1.09 in the experiment with Jurkat [3] (1 nM); 0.937 in the experiment on Jurkat [3] (10 nM); 0.912 in the experiment with Jurkat [3] (100 nM); 0.891 in the experiment with Jurkat [3] (1000 nM); 1.01 in the experiment with Jurkat [3] (10000 nM).

In the case of `COC1CC2CCC(C)C(O)(O2)C(=O)C(=O)N2CCCCC2C(=O)OC(C(C)CC2CCC(OCCO)C(OC)C2)CC(=O)C(C)C=C(C)C(O)C(OC)C(=O)C(C)CC(C)C=CC=CC=C1C` (stereo not given) [Everolimus], the confluency with Jurkat [1] (1 nM) came out at 0.88; in the experiment on Jurkat [1] (10 nM) it was 0.877; in the experiment with Jurkat [1] (100 nM), 0.969; in the experiment with Jurkat [1] (1000 nM), 1.06; in the experiment on Jurkat [1] (10000 nM), 0.906. Further, the metabolic activity in the experiment with Jurkat [2] (1 nM) was 0.773; with Jurkat [2] (10 nM), 0.935; in the experiment on Jurkat [2] (100 nM), 0.975; in the experiment with Jurkat [2] (1000 nM) it was 0.958; in the experiment with Jurkat [2] (10000 nM), 0.981. Further, the cytotoxicity was found to be 0.853 with Jurkat [3] (1 nM); 0.843 with Jurkat [3] (10 nM); 0.947 with Jurkat [3] (100 nM); 0.996 with Jurkat [3] (1000 nM); 0.893 in the experiment on Jurkat [3] (10000 nM).

As to `COc1ccc(-c2nc(N3CCOCC3)c3sc(CN(C)c4ncc(C(=O)NO)cn4)cc3n2)cn1` [Fimepinostat], the confluency amounted to 0.995 with Jurkat [1] (1 nM); 1.12 in the experiment with Jurkat [1] (10 nM); 1.2 in the experiment on Jurkat [1] (100 nM); 1.31 in the experiment with Jurkat [1] (1000 nM); 1.23 in the experiment on Jurkat [1] (10000 nM). For the same compound, the metabolic activity was 0.731 with Jurkat [2] (1 nM); 0.914 in the experiment with Jurkat [2] (10 nM); 0.796 in the experiment on Jurkat [2] (100 nM); 0.772 with Jurkat [2] (1000 nM); 0.42 in the experiment on Jurkat [2] (10000 nM). Further, the cytotoxicity in the experiment on Jurkat [3] (1 nM) stood at 0.792; in the experiment with Jurkat [3] (10 nM), 1.09; in the experiment on Jurkat [3] (100 nM), 1.05; in the experiment on Jurkat [3] (1000 nM) it was 1.12; with Jurkat [3] (10000 nM), 0.892.

Turning to `COc1cc(Nc2ncc(F)c(Nc3ccc4c(n3)N(COP(=O)(O)O)C(=O)C(C)(C)O4)n2)cc(OC)c1OC` [Fostamatinib], the confluency in the experiment on Jurkat [1] (1 nM) was 1; with Jurkat [1] (10 nM), 0.995; in the experiment with Jurkat [1] (100 nM) it was 0.961; with Jurkat [1] (1000 nM), 0.911; with Jurkat [1] (10000 nM), 0.821. Also, the metabolic activity in the experiment with Jurkat [2] (1 nM) is 1.21; in the experiment with Jurkat [2] (10 nM), 1.23; in the experiment on Jurkat [2] (100 nM), 1.1; in the experiment on Jurkat [2] (1000 nM) it was 1.01; in the experiment with Jurkat [2] (10000 nM), 0.925. The cytotoxicity stood at 1.06 in the experiment with Jurkat [3] (1 nM); 1.05 in the experiment on Jurkat [3] (10 nM); 0.951 with Jurkat [3] (100 nM); 0.893 with Jurkat [3] (1000 nM); 0.783 in the experiment with Jurkat [3] (10000 nM).
